Where no end group is shown, it is not given here.
T1: His6-NisKex (NisK extracellular region) (Lactococcus lactis CV56, UniProt P42707 36-144)
T1 construct: source: E. coli (pET28a), purified
T1 sequence (looked up): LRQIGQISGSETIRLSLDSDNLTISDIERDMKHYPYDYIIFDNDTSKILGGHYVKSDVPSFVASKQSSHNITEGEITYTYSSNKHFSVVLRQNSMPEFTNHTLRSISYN

B1: nisin (peptide, UniProt P13068 24-57, looked up)
peptide: ITSISLCTPGCKTGALMGCNMKTATCHCSIHVSK
notes: also called signal peptide nisin; nisin A; source: purified from commercial nisin product (Yinxiang, Zhejiang, China)

How the values were obtained:
NisK mutant 74–76A3 = assay: Far-Western blotting, b-nisin binding to NisK mutant; parameters: species or system Lactococcus lactis; conditions: membrane protein of strain 74–76A3; biotin-labelled nisin, HRP-streptavidin
Procedure: (§1) Lactococcus lactis MG1363 RKNlacZ mutant cells were harvested from 500 ml broth when OD600 reached 0.6–0.7, washed with PBS buffer (pH 7.4) once and resuspended in 20 ml PBS buffer. After lysing by sonication, cells were centrifuged at 6,000 g for 1 h to remove intact cells. The supernatant was ultra-centrifuged at 120,000 g for 2 h to separate soluble (cytoplasmic fraction) and insoluble (cell membrane fraction) proteins.
(§2) Nisin was labeled by biotin according to the method shown by ([Koteva et al., 2010]) in Beijing Biosynthesis Biotechnology Co., Ltd.. Briefly, nisin peptide was resolved by NaHCO3 (0.1 M, pH = 9.0) and incubated with biotin. Nisin labeled with biotin was purified by High Performance Liquid Chromatography and was named as b-nisin. The insoluble (cell membrane fraction) proteins were separated from L. lactis MG1363 RKNlacZ mutant cells. Far-Western blotting assays were performed using a modified protocol as described by ([Wu Y. et al., 2007]). Briefly, the insoluble proteins were firstly separated by SDS-PAGE, and transferred to a PVDF membrane as in a standard Western blotting. The proteins in the membrane were then denatured and renatured. The membrane is then blocked and probed with b-nisin. The horseradish peroxidase (HRP) conjugated streptavidin was used as the secondary antibody, and the lanes indicating b-nisin binding to NisK or NisK mutants were detected by photographic film.
(§3) In order to clarify whether the important residues in NisK affected the interaction between nisin and NisK, the membrane proteins from L. lactis MG1363 RKNlacZ strain and the mutant strain M66A, D72A, Y113A, F133A, 69–73A5, and 74–76A3 were extracted. Nisin was labeled by biotin, and the modified product was named by b-nisin. The interaction between b-nisin and membrane proteins was studied by far-Western blotting assay.

NisK mutant D72A = assay: as above; parameters: species or system Lactococcus lactis; conditions: membrane protein of strain D72A; biotin-labelled nisin, HRP-streptavidin
Procedure: as §1, §2, §3

NisK mutant M66A = assay: as above; parameters: species or system Lactococcus lactis; conditions: membrane protein of strain M66A; biotin-labelled nisin, HRP-streptavidin
Procedure: as §1, §2, §3

NisK mutant F133A = assay: as above; parameters: species or system Lactococcus lactis; conditions: membrane protein of strain F133A; biotin-labelled nisin, HRP-streptavidin
Procedure: as §1, §2, §3

NisK mutant 69–73A5 = assay: as above; parameters: species or system Lactococcus lactis; conditions: membrane protein of strain 69–73A5; biotin-labelled nisin, HRP-streptavidin
Procedure: as §1, §2, §3

NisK mutant Y113A = assay: as above; parameters: species or system Lactococcus lactis; conditions: membrane protein of strain Y113A; biotin-labelled nisin, HRP-streptavidin
Procedure: as §1, §2, §3

NisK = assay: Far-Western blotting, b-nisin binding to NisK; parameters: species or system Lactococcus lactis; conditions: membrane proteins of L. lactis MG1363 RKNlacZ, SDS-PAGE, PVDF, denatured and renatured; biotin-labelled nisin, HRP-streptavidin detection
Procedure: as §1
as §2, with “The membrane is then blocked and probed with b-nisin.” left out, “film. […]” for “film.”

[1] = molecular target: T1, His6-NisKex (NisK extracellular region); assay: SPR; BIACORE3000; His6-NisKex immobilised on a CM5 chip by amide coupling to 1000 RU; nisin in HBS-T as analyte, 260 to 8.125 μM in twofold dilution, 30 μl/min, 25°C; 1:1 (Langmuir) model with local fitted Rmax; conditions: both partners purified

Row | Molecule | binding to NisK mutant on far-Western blot (NisK mutant 74–76A3) | binding to NisK mutant on far-Western blot (NisK mutant D72A) | binding to NisK mutant on far-Western blot (NisK mutant M66A) | binding to NisK mutant on far-Western blot (NisK mutant F133A) | binding to NisK mutant on far-Western blot (NisK mutant 69–73A5) | binding to NisK mutant on far-Western blot (NisK mutant Y113A) | binding to NisK on far-Western blot (NisK) | koff [1] | kon [1]
1 | b-nisin: Nisin labeled with biotin, purified by High Performance Liquid Chromatography (ITSISLCTPGCKTGALMGCNMKTATCHCSIHVSK; ends and bridges not checked; also: labelled with biotin, site not given here) | did not show b-nisin binding bands | did not show b-nisin binding bands | did not show b-nisin binding bands | did not show b-nisin binding bands | did not show b-nisin binding bands | did not show b-nisin binding bands | labeled a membrane protein of about 51.5 kDa | – | –
2 | B1 | – | – | – | – | – | – | – | 1 s⁻¹ | 65.2 M⁻¹ s⁻¹

— article PMC5266694, “Identification of Key Residues in the NisK Sensor Region for Nisin Biosynthesis Regulation” (Frontiers in Microbiology, 2017)
